Measured values from patent US20090215893A1, “Parakeratosis inhibitor, pore-shrinking agent,or rough skin preventing/ameliorating agent, and external composition for skin” (Shiseido Company Ltd, priority 2005, published 2009).

Key:
[1] = tested on: back of a hairless mouse (HR-1), 10 mass % oleic acid applied; assay: Parakeratosis-inhibiting effect tests: oleic acid applied to hairless mouse back, macroscopic rough skin evaluation and parakeratosis value; assay type: in vivo; settings: for Macroscopic evaluation (average of four animals): 100 μL after oleic acid, three days, rough skin score 0.0 (no redness) to 2.0 (control); for Parakeratosis value (average of four animals): tape-stripped stratum corneum, hematoxylin, range 1.0 to 3.0, higher = parakeratosis advanced, control 2.0; for parakeratosis value / parakeratosis-inhibiting effect / rough skin preventing effect, based on stratum corneum peeling and redness: summary of Table 1, concentrations as in Table 1
Procedure: Aqueous solutions (containing 30 mass % of ethanol) of primarily 3 mass % of an α-amino acid derivative or salt thereof were prepared as the evaluation sample. The pH was regulated by hydrochloric acid or sodium hydroxide so as to be 7.0 to 7.5. When sample solubility was low, the solution was prepared accordingly.
100 μL of 10 mass % oleic acid solution (solvent: ethanol) were applied to the back of a hairless mouse (HR-1; Hoshino Laboratory Animals). Then the sample solution (α-amino acid derivative, and the like) was applied 100 μL at a time. This procedure was continued for three days. […] The status of the skin was evaluated in 0.25-point intervals, with skin where the control (control aqueous solution) had been applied being 2.0 and skin where there was no redness being 0.0. At the same time, the stratum corneum at the back of the hairless mouse was peeled off with tape, the nuclei were stained by hematoxylin, and the degree of parakeratosis was observed and evaluated by a parakeratosis value within a range of 1.0 to 3.0 (in 0.25 increments).

[2] = tested on: pores of the cheeks of healthy human males; assay: Human pore-shrinking effect (replica assessment of cheek pores); assay type: in vivo; settings: for Replica assessment (average of n = 5): twice a day for one month, pore size rating 1-13, after application minus before application, control 0.3; for pore-shrinking effect: summary of Table 2, concentrations as in Table 2
Procedure: An experiment was conducted whereby a sample was applied twice a day for one month to the cheeks of healthy human males in groups of 5 men each. Aqueous solutions (containing 15 mass % of ethanol) of 3 mass % of the α-amino acid derivative or a salt thereof were prepared as the evaluation sample. The pH was regulated by hydrochloric acid or sodium hydroxide so as to be 7.0 to 7.5. When sample solubility was low, the solution was prepared accordingly. The control was an aqueous 15% ethanol solution. The sample aqueous solution and control aqueous solution were applied to one half of the face at a time.
A replica was collected before and after continuous application, and changes in the shape of the pores at the same site were observed using a three-dimensional laser scanning microscope. The size of the pores was macroscopically evaluated in 13 steps of 1 through 13 (with the pores becoming larger as the numbers became larger), the difference in the ratings before and after application (after application-before application) was calculated, and the efficacy of each sample was studied using this difference as the replica assessment.

[3] = tested on: cheek of a panel of 20 women; assay: Sensory irritation tests; assay type: in vivo, human; settings: for Evaluation (sensory irritation, class of average rating): 1 mL on cheek, evaluated for ten minutes, 20 women; for sensory irritation: summary of Table 4, β-alanine at 3%
Procedure: 1 mL of a control aqueous solution and the sample aqueous solution prepared in Example 1 were applied using a cotton swab to the left or right cheek, respectively, of a panel of 20 women, the irritating sensation was evaluated every 30 seconds for ten minutes beginning immediately after application, and a final evaluation was reported. The evaluation of the irritating sensation was based on the following four steps of rating criteria, the average rating was calculated, and the average was classified by the following criteria.
3: Discontinued because of extremely strong irritation, such as stinging sensation, burning sensation, tickling sensation, itching, and the like.
2: Intolerable strong irritation, such as stinging sensation, burning sensation, tickling sensation, itching, and the like.
1: Tolerable with only slight stinging sensation, burning sensation, tickling sensation, itching, and the like.
0: Not particularly irritating.
A: average rating of less than 0.2
B: average rating of 0.2 to less than 1.0
C: average rating of 1.0 to less than 2.0
D: average rating of 2.0 or greater

[4] = tested on: back of hairless mice (HR-1), 10 mass % oleic acid applied; assay: Inhibiting effect against rough skin induced by oleic acid application (transepidermal water loss); assay type: in vivo; set-up: ΔTEWL value: unit not given here; settings: for ΔTEWL value: three days, average of four animals, rough skin worse as value increases, control 12.0; for ΔTEWL value compared with the control aqueous solution / rough skin preventing/ameliorating effect: summary of Table 3, concentrations as in Table 3
Procedure: In order to investigate the inhibiting effect of α-amino acid derivatives and salts thereof against rough skin induced by oleic acid application, the transepidermal water loss (TEWL value) before and after application was measured, the difference was compared with the control (control aqueous solution), and the effect was determined. Sample preparation and the application method were in accordance with Example 1. The TEWL was determined using the TM210 TEWA Meter (Courage+Khazaka Electronic GmBH).
100 μL of 10 mass % oleic acid (solvent: ethanol) was applied to the back of hairless mice (HR-1, four mice per group). Then a sample solution (α-amino acid derivatives, and the like) was applied 100 μL at a time. This procedure was continued for three days. The following day, the TEWL value of the back was determined and the values of the four animals were averaged. Rough skin became worse as the ΔTEWL value increased.

SMILES	Macroscopic evaluation (average of four animals) ([1]; sample 1.5 mass %)	Parakeratosis value (average of four animals) ([1]; sample 1.5 mass %)	parakeratosis value / parakeratosis-inhibiting effect [1]	rough skin preventing effect, based on stratum corneum peeling and redness [1]	Replica assessment (average of n = 5) ([2]; sample 1.5 mass %)	pore-shrinking effect [2]	Evaluation (sensory irritation, class of average rating) ([3]; sample 1.5 mass %)	sensory irritation [3]	ΔTEWL value ([4]; sample 1.5 mass %)	ΔTEWL value compared with the control aqueous solution / rough skin preventing/ameliorating effect [4]	Macroscopic evaluation (average of four animals) ([1]; sample 3 mass %)	Parakeratosis value (average of four animals) ([1]; sample 3 mass %)	Replica assessment (average of n = 5) ([2]; sample 3 mass %)	Evaluation (sensory irritation, class of average rating) ([3]; sample 3 mass %)	ΔTEWL value ([4]; sample 3 mass %)	Macroscopic evaluation (average of four animals) ([1]; sample 1 mass %)	Parakeratosis value (average of four animals) ([1]; sample 1 mass %)	ΔTEWL value ([4]; sample 1 mass %)
CC(NS(=O)(=O)c1ccccc1)C(=O)O (racemic) [N-benzenesulfonyl-DL-alanine]	1.4	1.5	reduced	seen	−0.8	seen	A (average rating of less than 0.2)	no problems	7.0	significantly lower								
O=C(O)C(CO)NS(=O)(=O)c1ccccc1 (racemic) [N-benzenesulfonyl-DL-serine]			reduced	seen		seen		no problems		significantly lower	1.2	1.2	−1.3	A (average rating of less than 0.2)	6.9			
CC(NC(=O)OCc1ccccc1)C(=O)O (racemic) [N-carbobenzoyloxy-DL-alanine]			reduced	seen		seen		no problems		significantly lower	1.3	1.2	−1.0	A (average rating of less than 0.2)	6.6			
O=C(NC(CO)C(=O)O)OCc1ccccc1 (racemic) [N-carbobenzoyloxy-DL-serine]			reduced	seen		seen		no problems		significantly lower	1.2	1.2	−1.3	A (average rating of less than 0.2)	6.7			
CC(NC1CCCCC1)C(=O)O (racemic) [N-cyclohexyl-DL-alanine]			reduced	seen		seen		no problems		significantly lower	1.3	1.4	−1.4	A (average rating of less than 0.2)	6.5			
O=C(O)C(CO)NC1CCCCC1 (racemic) [N-cyclohexyl-DL-serine]			reduced	seen		seen		no problems		significantly lower	1.2	1.2	−1.4	A (average rating of less than 0.2)	6.7			
CCNC(C)C(=O)O (racemic) [N-ethyl-DL-alanine]			reduced	seen		seen		no problems		significantly lower	1.6	1.5	−0.5	A (average rating of less than 0.2)	8.2			
CCNC(CO)C(=O)O (racemic) [N-ethyl-DL-serine]			reduced	seen		seen		no problems		significantly lower	1.5	1.5	−1.3	A (average rating of less than 0.2)	7.8			
CNC(C)C(=O)O (racemic) [N-methyl-DL-alanine]			reduced	seen		seen		no problems		significantly lower	1.4	1.4	−0.9	A (average rating of less than 0.2)	8.1			
O=C(O)CNC(=O)c1ccccc1 [Hippuric acid, reference compound]			not seen							not obtained						1.9	2.0	10.5
CC(=O)NCC(=O)O [N-acetyl-glycine, reference compound]			not seen							not obtained	1.9	2.0			14.7			
O=C(O)CNCP(=O)(O)O [Phosphonomethyl-glycine, reference compound]			not seen							not obtained						1.9	2.1	11.4
NCCC(=O)O [β-alanine, reference compound]								strong sensory irritation						D (average rating of 2.0 or greater)				
